The experiment has as its system α-synuclein aggregate. The experiment can be described thus: Test 2: suppressing the accumulation of α-synuclein aggregate in neurospheroid from PLA2G6 mutant human iPS cells. It is filed as cell-based. Particulars: compound added day 4, measured day 9, DMSO = 100%; for activity at 0.1 µM: 100 nM, read-out: Amount of aggregate (%) 100 nM; for activity at 1 µM: 1000 nM, read-out: Amount of aggregate (%) 1000 nM. Here is the method: Test 2: Evaluation of Suppressing the Accumulation of α-Synuclein Aggregate with Neurospheroid Prepared from Human iPS Cells with a Mutation in PLA2G6 Gene
(1) Induction of Differentiation from Human iPS Cell to Neural Cell
Neural stem cells were induced from PLA2G6 gene mutant iPS cells with PSC Neuronal Induction Medium (Thermo Fisher Scientific Inc., cat #A1647801). Neurospheroid was prepared from the induced neural stem cells by three-dimensional culture system, and preserved with BrainPhys Neuronal Medium (STEMCELL Technologies, cat #ST-05793) comprising NeuroCult SM1 Neuronal Supplement, N2 Supplement-A, 20 ng/mL BDNF, 20 ng/mL GDNF, 1 mM dibutyryl cAMP, and 200 nM ascorbic acid. Half of the culture medium was replaced on day 2 and day 4 after the induction of differentiation.
The test compound was diluted with the culture medium so as to be twice the final concentration, and an equal volume of the twice-concentrated solution was added to each well when half of the culture medium was replaced on day 4 after induction of differentiation.
(2) Evaluation of the Amount of α-Synuclein Aggregate
From the neurospheroid 9 days after the induction of differentiation, proteins were extracted with a TBS solution containing 1% TritionX-100, and the extracted proteins were subjected to a protein analysis with Simple Western system (Protein Simple, Inc., cat #SM-W008) using an α-synuclein antibody (Thermo Fisher Scientific Inc., cat #AHB0261) to measure the amount of the α-synuclein aggregate.
Assuming that the amount of the aggregate in the neurospheroid added with a DMSO solution is 100%, the amount of the aggregate in the neurospheroid added with each test compound was evaluated.

With `Cc1ccn(C)/c(=N/C(=O)C2(C)COC2)c1` [Example 4], the activity at 0.1 µM turned out to be 10% and the activity at 1 µM came to 120%.

Consider `CCC1(C(=O)/N=c2\cc(C)ccn2C)COC1` [Example 5], for which the activity at 0.1 µM is 113% and the activity at 1 µM turned out to be 91%.

As for `Cn1ccc(C(F)(F)F)c/c1=N\C(=O)C1(C)COC1` [Example 6], the activity at 0.1 µM came to 38% and the activity at 1 µM is 26%.

For the molecule `CCC1(C(=O)/N=c2\cc(C(F)(F)F)ccn2C)COC1` [Example 7], the activity at 0.1 µM is 40% and the activity at 1 µM came to 66%.

In the case of `COc1ccn(C)/c(=N/C(=O)C2(C)COC2)c1` [Example 8], the activity at 0.1 µM was determined as 58% and the activity at 1 µM stood at 61%.

Consider `CCn1ccc(OC)c/c1=N\C(=O)C1(C)COC1` [Example 10], for which the activity at 0.1 µM was determined as 25% and the activity at 1 µM was 8%.

On to `CCn1ccc(OC)c/c1=N\C(=O)C1(CC)COC1` [Example 11], for which the activity at 0.1 µM is 65% and the activity at 1 µM was found to be 7%.

Consider `CCOc1ccn(C)/c(=N/C(=O)C2(C)COC2)c1` [Example 12], for which the activity at 0.1 µM is 19% and the activity at 1 µM was determined as 10%.

Turning to `CCOc1ccn(C)/c(=N/C(=O)C2(CC)COC2)c1` [Example 13], the activity at 0.1 µM was determined as 33% and the activity at 1 µM stood at 13%.

For `Cn1ccc(OC(F)(F)F)c/c1=N\C(=O)C1(C)COC1` [Example 14], the activity at 0.1 µM stood at 21% and the activity at 1 µM turned out to be 7%.

As for `CCC1(C(=O)/N=c2\cc(OC(F)(F)F)ccn2C)COC1` [Example 15], the activity at 0.1 µM was determined as 2% and the activity at 1 µM stood at 120%.

Consider `Cn1ccc(F)c/c1=N\C(=O)C1(C)COC1` [Example 16], for which the activity at 0.1 µM was determined as 73% and the activity at 1 µM turned out to be 62%.

On to `CCC1(C(=O)/N=c2\cc(F)ccn2C)COC1` [Example 17], for which the activity at 0.1 µM worked out at 77% and the activity at 1 µM was 7%.

For the molecule `CCn1ccc(F)c/c1=N\C(=O)C1(C)COC1` [Example 18], the activity at 0.1 µM is 30% and the activity at 1 µM turned out to be 26%.

Consider `CCn1ccc(F)c/c1=N\C(=O)C1(CC)COC1` [Example 19], for which the activity at 0.1 µM stood at 112% and the activity at 1 µM came out at 19%.

`Cn1ccc(Cl)c/c1=N\C(=O)C1(C)COC1` [Example 20]: the activity at 0.1 µM was found to be 16% and the activity at 1 µM turned out to be 49%.

`CCC1(C(=O)/N=c2\cc(Cl)ccn2C)COC1` [Example 21]: the activity at 0.1 µM amounted to 37% and the activity at 1 µM is 7%.

For the molecule `CCn1ccc(Cl)c/c1=N\C(=O)C1(C)COC1` [Example 22], the activity at 0.1 µM was 28% and the activity at 1 µM came out at 48%.

`CCn1ccc(Cl)c/c1=N\C(=O)C1(CC)COC1` [Example 23]: the activity at 0.1 µM is 56% and the activity at 1 µM was determined as 11%.

With `Cc1cc/c(=N\C(=O)C2(C)COC2)n(C)c1` [Example 24], the activity at 0.1 µM was found to be 121% and the activity at 1 µM was determined as 58%.

Consider `CCC1(C(=O)/N=c2\ccc(C)cn2C)COC1` [Example 25], for which the activity at 0.1 µM is 73% and the activity at 1 µM was 21%.

Consider `Cn1cc(C(F)(F)F)cc/c1=N\C(=O)C1(C)COC1` [Example 26], for which the activity at 0.1 µM worked out at 23% and the activity at 1 µM was determined as 38%.

On to `CCC1(C(=O)/N=c2\ccc(C(F)(F)F)cn2C)COC1` [Example 27], for which the activity at 0.1 µM amounted to 19% and the activity at 1 µM turned out to be 28%.

As to `COc1cc/c(=N\C(=O)C2(C)COC2)n(C)c1` [Example 28], the activity at 0.1 µM is 47% and the activity at 1 µM was 98%.

For the molecule `CCC1(C(=O)/N=c2\ccc(OC)cn2C)COC1` [Example 29], the activity at 0.1 µM amounted to 89% and the activity at 1 µM stood at 33%.

Turning to `Cn1cc(F)cc/c1=N\C(=O)C1(C)COC1` [Example 30], the activity at 0.1 µM is 50% and the activity at 1 µM turned out to be 59%.

On to `Cn1cc(Cl)cc/c1=N\C(=O)C1(C)COC1` [Example 32], for which the activity at 0.1 µM worked out at 33% and the activity at 1 µM turned out to be 31%.

`CCC1(C(=O)/N=c2\ccc(Cl)cn2C)COC1` [Example 33]: the activity at 0.1 µM stood at 33% and the activity at 1 µM is 50%.

For `Cc1c/c(=N\C(=O)C2(C)COC2)n(C)cc1C` [Example 34], the activity at 0.1 µM was found to be 18% and the activity at 1 µM is 85%.

As to `CCC1(C(=O)/N=c2\cc(C)c(C)cn2C)COC1` [Example 35], the activity at 0.1 µM is 95% and the activity at 1 µM was 97%.

Regarding `Cc1c/c(=N\C(=O)C2(C)COC2)n(C)cc1F` [Example 36], the activity at 0.1 µM was determined as 13% and the activity at 1 µM was determined as 16%.

On to `CCC1(C(=O)/N=c2\cc(C)c(F)cn2C)COC1` [Example 37], for which the activity at 0.1 µM worked out at 29% and the activity at 1 µM amounted to 53%.

Turning to `Cc1c/c(=N\C(=O)C2(C)COC2)n(C)cc1Br` [Example 38], the activity at 0.1 µM turned out to be 21% and the activity at 1 µM is 33%.

Consider `CCC1(C(=O)/N=c2\cc(C)c(Br)cn2C)COC1` [Example 39], for which the activity at 0.1 µM stood at 15% and the activity at 1 µM came out at 94%.

Turning to `CCC1(C(=O)/N=c2\cc(OC)c(Cl)cn2C)COC1` [Example 41], the activity at 0.1 µM came to 18% and the activity at 1 µM was determined as 45%.

With `Cn1cccc/c1=N\C(=O)C1CCN(CC(F)(F)F)CC1` [Example 42], the activity at 0.1 µM was found to be 82% and the activity at 1 µM worked out at 96%.

With `Cn1cccc/c1=N\C(=O)C1(C)CNC1` [Example 43, 3-Methyl-N-[(2E)-1-methylpyridin-2(1H)-ylidene]azetidine-3-carboxamide], the activity at 0.1 µM is 49% and the activity at 1 µM stood at 57%.

`COc1ccn(C)/c(=N/C(=O)C2(C)CNC2)c1` [Example 44]: the activity at 0.1 µM came to 23% and the activity at 1 µM was found to be 10%.

In the case of `CCn1ccc(OC)c/c1=N\C(=O)C1(C)CNC1` [Example 45], the activity at 0.1 µM stood at 25% and the activity at 1 µM was 35%.

In the case of `Cn1cc(F)cc/c1=N\C(=O)C1(C)CNC1` [Example 46], the activity at 0.1 µM was 85% and the activity at 1 µM was determined as 49%.

Turning to `Cc1cc/c(=N\C(=O)C2(C)CNC2)n(C)c1` [Example 47], the activity at 0.1 µM was found to be 25% and the activity at 1 µM is 40%.

Consider `Cn1cc(C(F)(F)F)cc/c1=N\C(=O)C1(C)CNC1` [Example 48], for which the activity at 0.1 µM was found to be 63% and the activity at 1 µM came to 68%.

Consider `CN1CC(C)(C(=O)/N=c2\ccccn2C)C1` [Example 49, 1,3-Dimethyl-N-[(2E)-1-methylpyridin-2(1H)-ylidene]azetidine-3-carboxamide], for which the activity at 0.1 µM turned out to be 78% and the activity at 1 µM stood at 74%.

Turning to `CCn1ccc(OC)c/c1=N\C(=O)C1(C)CN(C)C1` [Example 52], the activity at 0.1 µM came out at 68% and the activity at 1 µM is 60%.

Turning to `CCOc1ccn(C)/c(=N/C(=O)C2(C)CN(C)C2)c1` [Example 53], the activity at 0.1 µM was determined as 16% and the activity at 1 µM stood at 92%.

For the molecule `CN1CC(C)(C(=O)/N=c2\cc(OC(F)(F)F)ccn2C)C1` [Example 54], the activity at 0.1 µM stood at 18% and the activity at 1 µM stood at 13%.

For the molecule `Cc1cc/c(=N\C(=O)C2(C)CN(C)C2)n(C)c1` [Example 55], the activity at 0.1 µM stood at 92% and the activity at 1 µM was found to be 74%.

`CN1CC(C)(C(=O)/N=c2\ccc(F)cn2C)C1` [Example 56]: the activity at 0.1 µM is 30% and the activity at 1 µM turned out to be 68%.

In the case of `Cc1c/c(=N\C(=O)C2(C)CN(C)C2)n(C)cc1C` [Example 57], the activity at 0.1 µM amounted to 13% and the activity at 1 µM was found to be 31%.

As to `Cc1c/c(=N\C(=O)C2(C)CN(C)C2)n(C)cc1F` [Example 58], the activity at 0.1 µM is 36% and the activity at 1 µM was 17%.

Regarding `Cc1c/c(=N\C(=O)C2(C)CN(C)C2)n(C)cc1Br` [Example 59], the activity at 0.1 µM came out at 6% and the activity at 1 µM came to 4%.

Turning to `Cn1cccc/c1=N\C(=O)N1CCOCC1` [Example 61, N-[(2E)-1-methylpyridin-2(1H)-ylidene]morpholine-4-carboxamide], the activity at 0.1 µM is 73% and the activity at 1 µM worked out at 53%.

Regarding `Cn1cccc/c1=N\C(=O)C1CCCO1` (stereo not shown) [Example 62], the activity at 0.1 µM worked out at 76% and the activity at 1 µM was 79%.

For `Cn1cccc/c1=N\C(=O)C1CCOC(C)(C)C1` (stereo not shown) [Example 64], the activity at 0.1 µM came out at 69% and the activity at 1 µM amounted to 72%.

Take `CN1CCC(C(=O)/N=c2\ccccn2C)CC1` [Example 65]: the activity at 0.1 µM came to 86% and the activity at 1 µM is 67%.

For the molecule `Cn1cccc/c1=N\C(=O)C1CNC1` [Example 66], the activity at 0.1 µM was 61% and the activity at 1 µM amounted to 66%.
